Results published in PubChem BioAssay AID2060489 (Molecular Pharmacology Branch, DTP, NCI, 2025).

Tested on: 922993-354-T-J3-PDC complex spheroids, viability
Test: Anticancer human tumor 922993-354-T-J3-PDC patient-derived endometrial carcinoma cell line growth inhibition [GQUAD]
Details: for IC50: curve of first compound; for viability, T/C: stronger effect = lower value
Summary of the method: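 Tumor cells were grown as complex spheroids with HUVEC endothelial cells and mesenchymal stem cells as stroma. G-quadruplex stabilizers were combined with targeted agents over half-log dilutions from near the clinical Cmax, or from 10 microM.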

[1] = second compound 0.0316 µM, first compound 0.0316 µM
[2] = second compound 0.0316 µM, first compound 0.316 µM
[3] = second compound 0.1 µM, first compound 0.0316 µM
[4] = second compound 0.1 µM, first compound 0.316 µM
[5] = second compound 0.316 µM, first compound 0.0316 µM
[6] = second compound 0.316 µM, first compound 0.316 µM
[7] = second compound 1 µM, first compound 0.0316 µM
[8] = second compound 1 µM, first compound 0.316 µM
[9] = second compound 3.16 µM, first compound 0.0316 µM
[10] = second compound 3.16 µM, first compound 0.316 µM
[11] = second compound 10 µM, first compound 0.0316 µM
[12] = second compound 10 µM, first compound 0.316 µM
[13] = second compound 0.0316 µM, first compound 0.1 µM
[14] = second compound 0.0316 µM, first compound 1 µM
[15] = second compound 0.0316 µM, first compound 3.16 µM
[16] = second compound 0.0316 µM, first compound 10 µM
[17] = second compound 0.1 µM, first compound 0.1 µM
[18] = second compound 0.1 µM, first compound 1 µM
[19] = second compound 0.1 µM, first compound 3.16 µM
[20] = second compound 0.1 µM, first compound 10 µM
[21] = second compound 0.316 µM, first compound 0.1 µM
[22] = second compound 0.316 µM, first compound 1 µM
[23] = second compound 0.316 µM, first compound 3.16 µM
[24] = second compound 0.316 µM, first compound 10 µM
[25] = second compound 1 µM, first compound 0.1 µM
[26] = second compound 1 µM, first compound 1 µM
[27] = second compound 1 µM, first compound 3.16 µM
[28] = second compound 1 µM, first compound 10 µM
[29] = second compound 3.16 µM, first compound 0.1 µM
[30] = second compound 3.16 µM, first compound 1 µM
[31] = second compound 3.16 µM, first compound 3.16 µM
[32] = second compound 3.16 µM, first compound 10 µM
[33] = second compound 10 µM, first compound 0.1 µM
[34] = second compound 10 µM, first compound 1 µM
[35] = second compound 10 µM, first compound 3.16 µM
[36] = second compound 10 µM, first compound 10 µM
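Further: spheroids exposed to compounds for seven days.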
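Wherever viability, T/C is given: 100% = DMSO vehicle control viability.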

Cn1ncnc1[C@H]1c2n[nH]c(=O)c3cc(F)cc(c23)N[C@@H]1c1ccc(F)cc1 + Cc1[nH]c2ccc(F)cc2c1-c1nc2c3cccnc3c3ncccc3c2[nH]1
IC50 (second compound 0.0316 µM): > 0.316 µM | IC50 (second compound 0.1 µM): > 0.316 µM | IC50 (second compound 0.316 µM): > 0.316 µM | IC50 (second compound 1 µM): > 0.316 µM | IC50 (second compound 3.16 µM): > 0.316 µM | IC50 (second compound 10 µM): > 0.316 µM | viability, T/C (second compound 0.0316 µM, first compound 0.000999 µM): 102% | viability, T/C (second compound 0.0316 µM, first compound 0.00316 µM): 100% | viability, T/C (second compound 0.0316 µM, first compound 0.00999 µM): 83.8% | viability, T/C [1]: 88% | viability, T/C (second compound 0.0316 µM, first compound 0.0999 µM): 85% | viability, T/C [2]: 61.5% | viability, T/C (second compound 0.1 µM, first compound 0.000999 µM): 92.4% | viability, T/C (second compound 0.1 µM, first compound 0.00316 µM): 85.4% | viability, T/C (second compound 0.1 µM, first compound 0.00999 µM): 80.8% | viability, T/C [3]: 97.5% | viability, T/C (second compound 0.1 µM, first compound 0.0999 µM): 80.1% | viability, T/C [4]: 54.1% | viability, T/C (second compound 0.316 µM, first compound 0.000999 µM): 100% | viability, T/C (second compound 0.316 µM, first compound 0.00316 µM): 98.6% | viability, T/C (second compound 0.316 µM, first compound 0.00999 µM): 108% | viability, T/C [5]: 111% | viability, T/C (second compound 0.316 µM, first compound 0.0999 µM): 122% | viability, T/C [6]: 64.9% | viability, T/C (second compound 1 µM, first compound 0.000999 µM): 110% | viability, T/C (second compound 1 µM, first compound 0.00316 µM): 82.8% | viability, T/C (second compound 1 µM, first compound 0.00999 µM): 100% | viability, T/C [7]: 97.1% | viability, T/C (second compound 1 µM, first compound 0.0999 µM): 93.3% | viability, T/C [8]: 69.6% | viability, T/C (second compound 3.16 µM, first compound 0.000999 µM): 118% | viability, T/C (second compound 3.16 µM, first compound 0.00316 µM): 92.6% | viability, T/C (second compound 3.16 µM, first compound 0.00999 µM): 106% | viability, T/C [9]: 84.2% | viability, T/C (second compound 3.16 µM, first compound 0.0999 µM): 94.9% | viability, T/C [10]: 70.6% | viability, T/C (second compound 10 µM, first compound 0.000999 µM): 111% | viability, T/C (second compound 10 µM, first compound 0.00316 µM): 93% | viability, T/C (second compound 10 µM, first compound 0.00999 µM): 119% | viability, T/C [11]: 112% | viability, T/C (second compound 10 µM, first compound 0.0999 µM): 75% | viability, T/C [12]: 81.9%

O=c1[nH]cc(F)c(=O)[nH]1 + Cc1[nH]c2ccc(F)cc2c1-c1nc2c3cccnc3c3ncccc3c2[nH]1
IC50 (second compound 0.0316 µM): > 10 µM | IC50 (second compound 0.1 µM): > 10 µM | IC50 (second compound 0.316 µM): > 10 µM | IC50 (second compound 1 µM): > 10 µM | IC50 (second compound 3.16 µM): > 10 µM | IC50 (second compound 10 µM): > 10 µM | viability, T/C [1]: 85% | viability, T/C [13]: 77.8% | viability, T/C [2]: 113% | viability, T/C [14]: 105% | viability, T/C [15]: 80.4% | viability, T/C [16]: 55.3% | viability, T/C [3]: 117% | viability, T/C [17]: 87.6% | viability, T/C [4]: 102% | viability, T/C [18]: 99.6% | viability, T/C [19]: 69.2% | viability, T/C [20]: 66.4% | viability, T/C [5]: 119% | viability, T/C [21]: 83.7% | viability, T/C [6]: 103% | viability, T/C [22]: 94.3% | viability, T/C [23]: 95.5% | viability, T/C [24]: 64.8% | viability, T/C [7]: 87.2% | viability, T/C [25]: 104% | viability, T/C [8]: 95.8% | viability, T/C [26]: 71.6% | viability, T/C [27]: 82.1% | viability, T/C [28]: 53.9% | viability, T/C [9]: 90% | viability, T/C [29]: 84.6% | viability, T/C [10]: 98.8% | viability, T/C [30]: 96.8% | viability, T/C [31]: 76.2% | viability, T/C [32]: 59% | viability, T/C [11]: 104% | viability, T/C [33]: 109% | viability, T/C [12]: 93.6% | viability, T/C [34]: 92.6% | viability, T/C [35]: 103% | viability, T/C [36]: 61.6%

O=c1[nH]cc(F)c(=O)[nH]1 + Cc1cnc(CNC(=O)c2c(=O)c3ccc(N4CCCN(C)CC4)nc3n3c2sc2ccccc23)cn1
IC50 (second compound 0.0316 µM): > 10 µM | IC50 (second compound 0.1 µM): > 10 µM | IC50 (second compound 0.316 µM): < 0.0316 µM | IC50 (second compound 1 µM): < 0.0316 µM | IC50 (second compound 3.16 µM): < 0.0316 µM | IC50 (second compound 10 µM): < 0.0316 µM | viability, T/C [1]: 85.8% | viability, T/C [13]: 69.8% | viability, T/C [2]: 79.3% | viability, T/C [14]: 96.3% | viability, T/C [15]: 82.1% | viability, T/C [16]: 57.4% | viability, T/C [3]: 65.7% | viability, T/C [17]: 49.3% | viability, T/C [4]: 49.7% | viability, T/C [18]: 61.5% | viability, T/C [19]: 63.1% | viability, T/C [20]: 60.1% | viability, T/C [5]: 50.6% | viability, T/C [21]: 47.1% | viability, T/C [6]: 45.5% | viability, T/C [22]: 42.8% | viability, T/C [23]: 48.7% | viability, T/C [24]: 49.3% | viability, T/C [7]: 54.1% | viability, T/C [25]: 38.2% | viability, T/C [8]: 40.8% | viability, T/C [26]: 42.6% | viability, T/C [27]: 50% | viability, T/C [28]: 44.9% | viability, T/C [9]: 46% | viability, T/C [29]: 50.6% | viability, T/C [10]: 43.3% | viability, T/C [30]: 53.6% | viability, T/C [31]: 51.5% | viability, T/C [32]: 46.4% | viability, T/C [11]: 44.2% | viability, T/C [33]: 44% | viability, T/C [12]: 43.7% | viability, T/C [34]: 37.2% | viability, T/C [35]: 47.4% | viability, T/C [36]: 46.1%

COc1ncnc(C2CC2)c1-c1ncc2cnn(Cc3ccc(-c4nc(C(F)(F)F)cn4C(C)C)cc3)c2n1 + CN(C)c1ccc(Nc2c3ccc(NC(=O)CCN4CCCC4)cc3nc3cc(NC(=O)CCN4CCCC4)ccc23)cc1
IC50 (second compound 0.0316 µM): > 10 µM | IC50 (second compound 0.1 µM): > 10 µM | IC50 (second compound 0.316 µM): > 10 µM | IC50 (second compound 1 µM): > 10 µM | IC50 (second compound 3.16 µM): > 10 µM | IC50 (second compound 10 µM): > 10 µM | viability, T/C [1]: 94.4% | viability, T/C [13]: 96.5% | viability, T/C [2]: 84% | viability, T/C [14]: 72.3% | viability, T/C [15]: 63.5% | viability, T/C [16]: 87.7% | viability, T/C [3]: 86% | viability, T/C [17]: 86.7% | viability, T/C [4]: 80.9% | viability, T/C [18]: 86.6% | viability, T/C [19]: 101% | viability, T/C [20]: 67.2% | viability, T/C [5]: 90.8% | viability, T/C [21]: 86% | viability, T/C [6]: 74.2% | viability, T/C [22]: 81.2% | viability, T/C [23]: 90.1% | viability, T/C [24]: 74.2% | viability, T/C [7]: 73.8% | viability, T/C [25]: 86.4% | viability, T/C [8]: 93.6% | viability, T/C [26]: 74.3% | viability, T/C [27]: 90.4% | viability, T/C [28]: 76.8% | viability, T/C [9]: 98.3% | viability, T/C [29]: 109% | viability, T/C [10]: 108% | viability, T/C [30]: 98.3% | viability, T/C [31]: 108% | viability, T/C [32]: 76.6% | viability, T/C [11]: 115% | viability, T/C [33]: 116% | viability, T/C [12]: 86.6% | viability, T/C [34]: 107% | viability, T/C [35]: 101% | viability, T/C [36]: 62.9%
